Measured values reported in patent publication US20100093973A1, “POLY(AMINO ACID) COMPOUND HAVING INHIBITORY ACTIVITY ON ABSORPTION OF PHOSPHORUS AND PHOSPHORUS ABSORPTION INHIBITOR” (priority 2007, published 2010).
Where a name gives a salt, the structure may show the parent alone.

How the values were obtained:
in vitro = type: cell-based; settings: dog
Procedure: MDCK Cells were inoculated into wells of a 96-well plate filled with D-MEM/F12 culture medium (available from GIBCO Company) supplemented with 10% FBS (available from TISSUE CULTURE BIOLOGICALS Company). After the cultivation of the cells for 3 days in a CO2 incubator, the culture medium was removed, a culture medium, in which each candidate substance (synthesized compound) had been dissolved, was added, followed by the cultivation for one day. To each well, there was added 10 μL of Cell Count Reagent SF (available from NAKARAI TESUKU K.K.), followed by the cultivation thereof for 2 hours and the subsequent determination of the absorbance observed at a wavelength of 460 nm. The IC50 values each were calculated on the basis of these measured values.

absorption of phosphorus = test: Evaluation of efficacy as phosphorus absorption inhibitors: serum radioactivity AUC (0-120 min) after oral 32P NaH2PO4 in rats, inhibitory rate; type: in vivo; settings: rats of SD line, oral dose 100 mg/5 mL/kg, 32P NaH2PO4 given orally 5 min later, serum radioactivity AUC 0-120 min vs control
Procedure: Seven-week-old male rats of SD line (available from SANKYO Labo-Service Co., Ltd.), as test animals, were kept and acclimatized using the usual feed (Solid CRF-1 available from ORIENTAL Yeast Co., Ltd.) and they were used in the following tests after they were fasted overnight. Each candidate substance (synthesized compound) dissolved in distilled water for injection (Otsuka Pharmaceutical Co., Ltd.) was orally administered in a dose of 100 mg/5 mL/kg or 50 mg/5 mL/kg and after 5 minutes from the administration, 3 mg/3 mL/kg, 1 MBq/kg of an NaH2PO4 solution containing ^32P (available from PerkinElmer Company) was orally administered. Subsequently, the blood was collected with the elapse of time through the caudal vein of the test animal to thus obtain the serum thereof and the radioactivity of 40 μL of the serum was determined using a liquid scintillation counter. The inhibitory rate (%) for each candidate compound was calculated on the basis of the foregoing measured values according to the following equation: […]

| Compound | IC50 at 1 day (in vitro) [µg/mL] | Inhibitory Rate (%) of Phosphorus Absorption (absorption of phosphorus) [%] |
| --- | --- | --- |
| NCCC[C@H](NC(=O)[C@H](CCCN)NC(=O)[C@@H](N)CCCN)C(=O)NCCCN(CCCCN(CCCNC(=O)[C@H](CCCN)NC(=O)[C@H](CCCN)NC(=O)[C@@H](N)CCCN)C(=O)[C@H](CCCN)NC(=O)[C@H](CCCN)NC(=O)[C@@H](N)CCCN)C(=O)[C@H](CCCN)NC(=O)[C@H](CCCN)NC(=O)[C@@H](N)CCCN [Example 28, SPM(Orn)12 Hydrochloride] | > 10000 | 66 |
| NCCCC[C@H](N)C(=O)N(CCCCN(CCCNC(=O)[C@@H](N)CCCN)C(=O)[C@@H](N)CCCCN)CCCNC(=O)[C@@H](N)CCCN [Example 13, SPM(Orn)2(Lys)2 Hydrochloride] | > 10000 | 36 |
| N=C(N)NCCC[C@H](N)C(=O)NCCCN(CCCCN(CCCNC(=O)[C@@H](N)CCCNC(=N)N)C(=O)[C@@H](N)CCCNC(=N)N)C(=O)[C@@H](N)CCCNC(=N)N [Example 5, SPM(Arg)4 Hydrochloride] | > 10000 | 52 |
| NCCCC[C@H](N)C(=O)NCCCC[C@H](NC(=O)[C@@H](N)CCCCN)C(=O)N(CCCN)CCCCN(CCCN)C(=O)[C@H](CCCCNC(=O)[C@@H](N)CCCCN)NC(=O)[C@@H](N)CCCCN [Example 12, SPM(Lys)6 Hydrochloride] | > 10000 | 43 |
| NCCC[C@H](N)C(=O)NCCCN(CCCCN(CCCNC(=O)[C@@H](N)CCCN)C(=O)[C@@H](N)CCCN)C(=O)[C@@H](N)CCCN [Example 4, SPM(Orn)4 Hydrochloride] | > 10000 | 58 |

Now from value to compound, other results behind:

| IC50 at 1 day (in vitro) [µg/mL] | Compound | Inhibitory Rate (%) of Phosphorus Absorption (absorption of phosphorus) [%] |
| --- | --- | --- |
| > 10000 | NCCCC[C@H](NC(=O)[C@H](CCCCN)NC(=O)[C@@H](N)CCCCN)C(=O)NCCCN(CCCCN(CCCNC(=O)[C@H](CCCCN)NC(=O)[C@H](CCCCN)NC(=O)[C@@H](N)CCCCN)C(=O)[C@H](CCCCN)NC(=O)[C@H](CCCCN)NC(=O)[C@@H](N)CCCCN)C(=O)[C@H](CCCCN)NC(=O)[C@H](CCCCN)NC(=O)[C@@H](N)CCCCN [Example 20, SPM(Lys)12 Hydrochloride] | 60 |
| > 10000 | NCCCC[C@H](N)C(=O)NCCCC[C@H](NC(=O)[C@@H](N)CCCCN)C(=O)NCCCN(CCCCN(CCCNC(=O)[C@H](CCCCNC(=O)[C@@H](N)CCCCN)NC(=O)[C@@H](N)CCCCN)C(=O)[C@H](CCCCNC(=O)[C@@H](N)CCCCN)NC(=O)[C@@H](N)CCCCN)C(=O)[C@H](CCCCNC(=O)[C@@H](N)CCCCN)NC(=O)[C@@H](N)CCCCN [Example 2, SPM(Lys)12 Hydrochloride] | 52 |
| > 10000 | NCCCC[C@H](N)C(=O)NCCCC[C@H](N)C(=O)NCCCN(CCCCN(CCCNC(=O)[C@@H](N)CCCCNC(=O)[C@@H](N)CCCCN)C(=O)[C@@H](N)CCCCNC(=O)[C@@H](N)CCCCN)C(=O)[C@@H](N)CCCCNC(=O)[C@@H](N)CCCCN [Example 15, SPM(Lys)8 Hydrochloride] | 33 |
